Some test systems named below: SW-620; HCC 2998; UO-31; T47D; SNB-75; SR; COLO 205; K562; HCT-15; NCI-H23; MOLT-4; NCI-H522; SK-MEL-2; M14; MDA-N; RXF 393; CAKI-1; U-251; UACC-62; 786-0.
What all share (assay): NCI tumour cell line growth inhibition, 48 h

Each structure is given as a SMILES string.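 Values below derive from 48-hour exposures of cells grown in 96-well plates, with endpoints linearly interpolated between the two concentrations bracketing the appropriate inhibition level. GI50 is the concentration that inhibits growth by half.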 Active and inactive are the calls of the source. No stated cut-off is given here; in the data, active = GI50 up to about 1.1 µM and inactive = higher.

`O=[N+]([O-])c1ccc2ncccc2c1CCc1c([N+](=O)[O-])ccc2ncccc12`: the GI50 in the experiment with SW-620, with HCC 2998, in the experiment on UO-31, with T47D, in the experiment with SNB-75 and in the experiment with SR was > 100 µM (inactive) throughout. Moreover, the GI50 was > 100 µM (inactive) in the experiment on COLO 205; > 100 µM (inactive) with K562; more than 100 µM in the experiment with HCT-15; > 100 µM (inactive) in the experiment on NCI-H23; > 100 µM (inactive) in the experiment with MOLT-4; > 100 µM (inactive) in the experiment with NCI-H522. Besides, the GI50 in the experiment on SK-MEL-2, in the experiment with M14, with MDA-N, in the experiment on RXF 393, in the experiment with CAKI-1 and in the experiment with U-251 was > 100 µM (inactive) throughout. Further, the GI50 with UACC-62 and in the experiment with 786-0 was > 100 µM (inactive) throughout.

Turning to `c1ccc(-c2cn3c(nc4ccccc43)c(-c3ccccc3)n2)cc1`, the GI50 with SW-620 was > 100 µM (inactive); in the experiment on HCC 2998, > 100 µM (inactive); in the experiment with UO-31, 37.7 µM (inactive); with T47D, > 39.6 µM (inactive); in the experiment with SNB-75, 14.5 µM (inactive); in the experiment on SR, > 100 µM (inactive). In addition, the GI50 in the experiment with COLO 205 was > 100 µM (inactive); with K562 it was > 100 µM (inactive); in the experiment on HCT-15 it was more than 100 µM; with NCI-H23, 55.2 µM (inactive); with MOLT-4, > 100 µM (inactive); with NCI-H522 it was 35.2 µM (inactive). Besides, the GI50 in the experiment on SK-MEL-2 is 30.1 µM (inactive); with M14, > 100 µM (inactive); in the experiment with MDA-N it was > 31.6 µM (inactive); in the experiment with RXF 393 it was > 38 µM (inactive); in the experiment on CAKI-1, > 48.9 µM (inactive); in the experiment on U-251 it was 14.2 µM (inactive). Besides, the GI50 with UACC-62 was 12.4 µM (inactive); in the experiment with 786-0, 16.1 µM (inactive).

As for `COc1cc2c(c(OC)c1OC)-c1ccc(SC)c(=O)cc1C(NC(=O)c1ccccc1)CC2` (stereo not given), the GI50 in the experiment on SW-620 is < 0.01 µM (active); with HCC 2998, < 0.01 µM (active); in the experiment with UO-31, 0.272 µM (active); with T47D, 86.3 µM (inactive); in the experiment with SNB-75, 0.167 µM (active); with SR, < 0.0137 µM (active). The GI50 with COLO 205 was < 0.01 µM (active); in the experiment on K562, < 0.01 µM (active); in the experiment with HCT-15 it was less than 0.01 µM; in the experiment on NCI-H23, 0.0107 µM (active); in the experiment on MOLT-4, < 0.01 µM (active); in the experiment with NCI-H522, < 0.01 µM (active). Also, the GI50 in the experiment with SK-MEL-2 was < 0.01 µM (active); in the experiment with M14, < 0.01 µM (active); in the experiment with MDA-N it was < 0.01 µM (active); with RXF 393, 0.0444 µM (active); in the experiment with CAKI-1 it was < 0.01 µM (active); with U-251, < 0.01 µM (active). Also, the GI50 in the experiment with UACC-62 and in the experiment on 786-0 was < 0.01 µM (active) each time.

Take `O=C(N/N=C/c1ccc2c(c1)CCC2)c1ccccc1O`: the GI50 in the experiment with SW-620 was 31.1 µM (inactive); with HCC 2998 it was 13.3 µM (inactive); with UO-31, 29 µM (inactive); in the experiment with T47D, 25.5 µM (inactive); in the experiment on SNB-75, 16.8 µM (inactive); in the experiment with SR it was 30.9 µM (inactive). Also, the GI50 in the experiment with COLO 205 is 53.7 µM (inactive); in the experiment on K562, 38.9 µM (inactive); with HCT-15, 22.9 µM; with NCI-H23, 24.2 µM (inactive); in the experiment on MOLT-4 it was 36.9 µM (inactive); in the experiment on NCI-H522 it was 21.5 µM (inactive). Moreover, the GI50 with SK-MEL-2 is 23.4 µM (inactive); in the experiment on M14, 30 µM (inactive); in the experiment with MDA-N it was 19.4 µM (inactive); in the experiment with RXF 393, 23 µM (inactive); with CAKI-1 it was 28.4 µM (inactive); with U-251, 17.7 µM (inactive). Further, the GI50 in the experiment on UACC-62 was 22 µM (inactive); in the experiment with 786-0, 18.5 µM (inactive).

Regarding `CCOC(=O)N/N=C/C1=NN(C(=O)OCC)[S+]([O-])C1C` (stereo not given), the GI50 in the experiment on SW-620, with HCC 2998, in the experiment with UO-31, with T47D, in the experiment on SNB-75 and in the experiment on SR was > 100 µM (inactive) each time. The GI50 was > 100 µM (inactive) in the experiment with COLO 205; > 100 µM (inactive) with K562; more than 100 µM with HCT-15; > 100 µM (inactive) in the experiment on NCI-H23; > 100 µM (inactive) in the experiment with MOLT-4; > 100 µM (inactive) with NCI-H522. Besides, the GI50 with SK-MEL-2, with M14, in the experiment on MDA-N, in the experiment with RXF 393, in the experiment on CAKI-1 and in the experiment with U-251 was > 100 µM (inactive) throughout. For the same compound, the GI50 with UACC-62 and with 786-0 was > 100 µM (inactive) throughout.

For the compound `O=[N+]([O-])c1cc(-c2nc(-c3ccccc3)c(-c3ccccc3)[nH]2)c(O)c([N+](=O)[O-])c1`, the GI50 is 27.5 µM (inactive) in the experiment with SW-620; 16.6 µM (inactive) in the experiment on HCC 2998; 18.2 µM (inactive) with UO-31; 20.3 µM (inactive) in the experiment on T47D; 23 µM (inactive) in the experiment on SNB-75; 20.8 µM (inactive) in the experiment on SR. In addition, the GI50 with COLO 205 is 21.8 µM (inactive); in the experiment on K562, 30.8 µM (inactive); with HCT-15 it was 15.8 µM; in the experiment on NCI-H23, 16.9 µM (inactive); with MOLT-4 it was 22.8 µM (inactive); with NCI-H522 it was 20.2 µM (inactive). The GI50 with SK-MEL-2 was 19.9 µM (inactive); with M14, 21.1 µM (inactive); with MDA-N, 31.1 µM (inactive); in the experiment on RXF 393 it was 17.4 µM (inactive); with CAKI-1 it was 27.4 µM (inactive); with U-251 it was 14.8 µM (inactive). Further, the figures for the GI50 with UACC-62 and with 786-0 were 17.5 µM (inactive) and 21.6 µM (inactive), respectively.

With `C=CCN(CCNS(=O)(=O)c1ccc(C)cc1)S(=O)(=O)c1ccc(C)cc1`, the GI50 was > 82.2 µM (inactive) with SW-620; > 69.5 µM (inactive) in the experiment on HCC 2998; > 50.2 µM (inactive) in the experiment on UO-31; > 51.1 µM (inactive) in the experiment with T47D; 15.1 µM (inactive) in the experiment with SNB-75; > 100 µM (inactive) in the experiment with SR. Besides, the GI50 was > 44.5 µM (inactive) in the experiment on COLO 205; > 54.1 µM (inactive) with K562; more than 55.5 µM in the experiment on HCT-15; > 50.1 µM (inactive) in the experiment with NCI-H23; > 45.7 µM (inactive) in the experiment with MOLT-4; 12.9 µM (inactive) in the experiment with NCI-H522. For the same compound, the GI50 with SK-MEL-2 was 34 µM (inactive); with M14, 14 µM (inactive); in the experiment on MDA-N, 46.3 µM (inactive); in the experiment on RXF 393, > 67.6 µM (inactive); with CAKI-1, 87.9 µM (inactive); in the experiment on U-251 it was > 49.5 µM (inactive). The figures for the GI50 in the experiment on UACC-62 and with 786-0 were 73.6 µM (inactive) and 61.8 µM (inactive), respectively.

Turning to `CC#CC(=O)SCCNC(=O)CC`, the GI50 in the experiment on SW-620 was 3.01 µM (inactive); in the experiment on HCC 2998, > 10 µM (inactive); in the experiment on UO-31 it was > 10 µM (inactive); in the experiment on T47D it was > 6.5 µM (inactive); with SNB-75, > 10 µM (inactive); in the experiment on SR, > 4.79 µM (inactive). Moreover, the GI50 was 3.27 µM (inactive) with COLO 205; > 5.38 µM (inactive) in the experiment on K562; more than 10 µM in the experiment with HCT-15; > 10 µM (inactive) with NCI-H23; 1.48 µM (inactive) with MOLT-4; 1.62 µM (inactive) with NCI-H522. For the same compound, the GI50 was > 10 µM (inactive) in the experiment on SK-MEL-2; > 8.05 µM (inactive) with M14; 6.07 µM (inactive) with MDA-N; 4.53 µM (inactive) in the experiment with RXF 393; > 10 µM (inactive) with CAKI-1; > 10 µM (inactive) in the experiment with U-251. Also, the GI50 is > 9.44 µM (inactive) in the experiment on UACC-62 and > 6.7 µM (inactive) with 786-0.

In the case of `O=C(NCCc1ccccn1)c1ccc2cc(C(=O)N3CC(CCl)c4ccc([N+](=O)[O-])cc43)[nH]c2c1` (stereo not given), the GI50 was > 100 µM (inactive) with SW-620; 61.5 µM (inactive) in the experiment on HCC 2998; > 49.8 µM (inactive) in the experiment with UO-31; > 100 µM (inactive) with T47D; 18.8 µM (inactive) in the experiment on SNB-75; > 100 µM (inactive) in the experiment on SR. Besides, the GI50 is > 100 µM (inactive) with COLO 205; > 100 µM (inactive) in the experiment on K562; 77.4 µM in the experiment on HCT-15; 45.3 µM (inactive) in the experiment with NCI-H23; > 100 µM (inactive) in the experiment with MOLT-4; 9.82 µM (inactive) in the experiment on NCI-H522. The GI50 in the experiment with SK-MEL-2 is > 100 µM (inactive); in the experiment on M14, > 100 µM (inactive); in the experiment on MDA-N, > 100 µM (inactive); in the experiment with RXF 393, 7.66 µM (inactive); in the experiment with CAKI-1, > 24.2 µM (inactive); in the experiment on U-251, 18.5 µM (inactive). Also, the GI50 was 8.99 µM (inactive) in the experiment with UACC-62 and 9.64 µM (inactive) in the experiment on 786-0.

As for `CC(=O)N1c2ccccc2C(C)C1c1[nH]c2ccccc2c1C` (stereo not given), the GI50 in the experiment on SW-620 is 27.5 µM (inactive); in the experiment on HCC 2998, 16.3 µM (inactive); in the experiment on UO-31 it was 17.2 µM (inactive); in the experiment on T47D, 18.8 µM (inactive); in the experiment with SNB-75, 19.8 µM (inactive); with SR, 13.9 µM (inactive). The GI50 with COLO 205 was 13.5 µM (inactive); in the experiment on K562, 19.5 µM (inactive); with HCT-15, 27.2 µM; in the experiment on NCI-H23 it was 23.8 µM (inactive); in the experiment on MOLT-4, 19.7 µM (inactive); with NCI-H522, 15.9 µM (inactive). Also, the GI50 in the experiment on SK-MEL-2 is 17.7 µM (inactive); with M14, 18.7 µM (inactive); in the experiment on MDA-N, 19.9 µM (inactive); in the experiment with RXF 393, 13 µM (inactive); in the experiment on CAKI-1, 22.8 µM (inactive); with U-251, 20.5 µM (inactive). Moreover, the GI50 with UACC-62 is 18.4 µM (inactive); in the experiment on 786-0, 19.9 µM (inactive).
